Source: US6455259B2, “Methods for detecting, selecting and cloning agents that degrade or promote degradation of DNA” (priority 1998, dated 2002)

Columns and labels:
E. coli strain MC1061 [1] = assay: Complementation of T4 denA mutant phage by bleomycin: progeny phage production; type: cell-based
Protocol: (§1) In this example, a T4 denA mutant phage is complemented with an antibiotic known to cause single strand breaks in DNA, bleomycin. In this example, the production of any viable progeny phage above the background will be evidence of complementation. E. coli strain MC1061, growing at 32∞ C in Luria Broth plus 0.2% glucose was treated for 60 minutes with 10 μg/ml of bleomycin, which was then removed by centrifuging the cells and re-suspending them in an equal volume of the same media. Under these treatment conditions, cell viability is reduced to about 40-50% of that at the beginning of the treatment. The cells are then allowed to grow for various amounts of time at 32∞ C. in the absence of bleomycin, at which times HU is added to 200 mM.
Phage mutant in both the denA and denB genes is added five minutes later. Unadsorbed input phage are eliminated by treating the infected cultures with anti-T4 sera added 15-20 minutes after infection. This anti-T4 sera treatment to eliminate unadsorbed input phage allows detection of a lower level of progeny phage production. However, the anti-T4 sera must be removed or it will also inactivate progeny phage. This was done by centrifuging the infected cultures 50 minutes after infection, washing the pellets with one-tenth volume of media, centrifuging again, re-suspending the culture in one volume of media and immediately causing lysis of the productive cells by the addition of chloroform.
Progeny phage production was assayed by standard methods. A control infection was also done on cells given no bleomycin treatment.

E. coli strain MC1061 [2] = assay: Cell viability after bleomycin treatment; type: cell-based; settings: 10 μg/ml bleomycin, 60 minutes, 32 C, Luria Broth plus 0.2% glucose
Protocol: as §1

bleomycin was tested. Which “factor increase of progeny titre over control (no Bleomycin)” value (from here on “factor increase … (no Bleomycin)”) (E. coli strain MC1061 [1]; outgrowth 0 minutes) did it give?
Its value is 1300.

What about the “factor increase … (no Bleomycin)” value (E. coli strain MC1061 [1]; outgrowth 20 minutes) of the same substance?
Its value is 13000.

What about the “factor increase … (no Bleomycin)” value (E. coli strain MC1061 [1]; outgrowth 40 minutes) of the same substance?
Its value is 24000.

And the “factor increase … (no Bleomycin)” value (E. coli strain MC1061 [1]; outgrowth 60 minutes)?
Its value is 45000.

And the “cell viability, relative to that at the beginning of the treatment” value (E. coli strain MC1061 [2])?
Its value is 40-50%.
